Read-outs that look alike come from different tables or passages of the source.
Legend:
Septoria tritici = experiment: Activity against leaf blotch on wheat caused by Septoria tritici (microtiter plate test); type: cell-based; conditions: MTP, 405 nm, 7 days after inoculation, 18° C
Pyricularia oryzae = type: cell-based; conditions: MTP, 405 nm, 7 days after inoculation, 18° C, efficacy from relative growth in %

| SMILES | Observed efficacy (Septoria tritici; Pyraclostrobin alone, 0.001 ppm) | Observed efficacy (Pyricularia oryzae; pyraclostrobin alone, 0.004 ppm) | Observed efficacy (Septoria tritici; Triazamat alone, 0.25 ppm) | Observed efficacy (Pyricularia oryzae; triazamat alone, 1 ppm) |
| --- | --- | --- | --- | --- |
| COC(=O)N(OC)c1ccccc1COc1ccn(-c2ccc(Cl)cc2)n1 [pyraclostrobin] | 7 | 23 | – | – |
| CCOC(=O)CSc1nc(C(C)(C)C)nn1C(=O)N(C)C [triazamat, triazamate] | – | – | 4 | 4 |

— patent publication US20120238447A1 (priority 2009, published 2012)
